Among the data in BindingDB's records for doi:10.1021/jm981129a (Julius-Maximilians University Würzburg, 1999) are IC50 values, retold here.

For this assay, the target named is Nitric oxide synthase, brain (Sus scrofa). The assay is described as follows: Inhibitory activity against Nitric oxide synthase (derived from porcine brain cerebellum).

`Nc1nc(N)c2nc(COc3ccccc3)cnc2n1` [6-Phenoxymethyl-pteridine-2,4-diamine]: the half-maximal inhibitory concentration (IC50) was found to be 180 µM.

By IC50 is commonly meant the concentration that inhibits the measured activity by half. The low end stands for greater potency, the high end for weaker potency.
